# Measurements as given in PMC8346900 (Proceedings of the National Academy of Sciences of the …, 2021).
# “Also recorded” adds a separate entry of the source.
# Legend:
# [1] = test system: CaMKIIα Thr286 autophosphorylation; test: Thr286 autophosphorylation by Western blot in cultured cortical neurons; format: cell-based, mouse; conditions: 1 h, HOCPCA 3 mM
# CaMKIIα WT hub = biological target: T1, CaMKIIα WT hub (Homo sapiens, UniProt Q9UQM7); test: Thermal shift assay by differential scanning fluorimetry; format: binding; conditions: saturating concentrations, pH 6
# T1 sequence (Q9UQM7 345-475): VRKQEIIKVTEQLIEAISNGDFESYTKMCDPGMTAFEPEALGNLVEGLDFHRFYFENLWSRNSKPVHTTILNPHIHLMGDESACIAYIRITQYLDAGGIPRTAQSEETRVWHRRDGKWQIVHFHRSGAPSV
# recombinant CaMKIIα = recombinant CaMKIIα (Homo sapiens, UniProt Q9UQM7); test: ADP-Glo assay, syntide-II phosphorylation; format: biochemical; conditions: fixed concentration of CaM, wide concentration span
# [2] = Body temperature recordings in mice; format: in vivo, mouse; conditions: C57/B6 mice, i.p.; GHB 275 mg/kg, HOCPCA 175 mg/kg
# GABAB receptors = conditions: cited from earlier work
# [3] = biological target: T2, CaMKIIα wild-type (WT) hub protein (Homo sapiens, UniProt Q9UQM7); test: Intrinsic tryptophan fluorescence; format: binding; conditions: increasing concentrations
# T2 sequence (Q9UQM7 345-475): T1 sequence (Q9UQM7 345-475)
# cortical neurons = test: Glu/Gly excitotoxicity in cultured cortical neurons, LDH release; format: cell-based, mouse
# hippocampal neurons = test: Glu excitotoxicity in cultured hippocampal neurons, live/dead staining; format: cell-based, mouse; conditions: for Cell survival after Glu: Camk2a-/- neurons
# [4] = test system: mouse hippocampal slices (CA3–CA1); test: Ex vivo LTP recordings in hippocampal slices; conditions: bath application, 100 μM, 100 Hz induction
# C57/B6 mice = test: Photothrombotic stroke model of focal ischemia
# [5] = test system: CaMKIIα (mouse brain slices); test: In vitro autoradiography on Camk2a and Camk2b +/+ and -/- mouse brain slices; format: binding
# [6] = biological target: CaMKIIβ/γ/δ subtypes; CaMKIIα Δhub (Rattus norvegicus, UniProt P11275); format: binding; conditions: HEK293T cells transiently expressing Δhub
# [7] = test system: CaMKIIβ/γ/δ subtypes; CaMKIIα Δhub; format: binding, rat; conditions: heterologously expressed in HEK293T cells
# [8] = 175 mg/kg at 3, 6, 12 h poststroke
# Sequence of recombinant CaMKIIα (Q9UQM7 whole entry): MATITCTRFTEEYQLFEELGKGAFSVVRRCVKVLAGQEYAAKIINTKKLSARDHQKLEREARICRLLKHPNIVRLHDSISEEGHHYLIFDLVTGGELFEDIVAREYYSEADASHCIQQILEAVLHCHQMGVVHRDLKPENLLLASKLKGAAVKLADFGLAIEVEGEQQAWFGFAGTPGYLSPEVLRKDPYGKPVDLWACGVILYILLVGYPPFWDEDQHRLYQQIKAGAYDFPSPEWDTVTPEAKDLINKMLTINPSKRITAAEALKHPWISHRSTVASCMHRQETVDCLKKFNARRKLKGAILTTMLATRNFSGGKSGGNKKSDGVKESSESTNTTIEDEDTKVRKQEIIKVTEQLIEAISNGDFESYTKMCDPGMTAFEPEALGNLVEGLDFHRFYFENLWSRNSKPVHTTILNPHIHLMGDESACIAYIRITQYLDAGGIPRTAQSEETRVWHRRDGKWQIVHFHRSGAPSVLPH
# Sequence of CaMKIIβ/γ/δ subtypes; CaMKIIα Δhub (Rattus norvegicus, UniProt P11275) (P11275 1-337, stated change not applied): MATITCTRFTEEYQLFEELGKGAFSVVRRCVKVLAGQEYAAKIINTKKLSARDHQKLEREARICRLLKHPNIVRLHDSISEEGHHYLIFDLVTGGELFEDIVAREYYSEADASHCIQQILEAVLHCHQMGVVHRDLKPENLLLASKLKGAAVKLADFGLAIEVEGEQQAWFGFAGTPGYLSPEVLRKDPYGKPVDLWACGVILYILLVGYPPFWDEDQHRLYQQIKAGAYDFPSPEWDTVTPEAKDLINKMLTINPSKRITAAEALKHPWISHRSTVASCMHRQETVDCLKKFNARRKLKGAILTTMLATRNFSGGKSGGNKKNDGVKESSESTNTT
molecule,measurement,setting,value
"COc1ccc(S(=O)(=O)N(CCO)c2ccccc2CN(C)C/C=C/c2ccc(Cl)cc2)cc1 [KN93, reference compound]",Thr286 autophosphorylation,[1]; basal conditions,significant inhibition
"O=C(O)CCCO [GHB, γ-hydroxybutyrate, reference compound]",maximum Tm increase (maximum ∆Tm),CaMKIIα WT hub,13 °C
same,Effect on syntide phosphorylation by CaMKIIα,recombinant CaMKIIα,no effect
same,Effect on body temperature,[2],strong hypothermia
same,Ki,GABAB receptors; GABAB receptors,230 µM
"O=C(O)C1=CC(O)CC1 (stereo not drawn) [HOCPCA, 3-hydroxycyclopent-1-enecarboxylic acid]",Quenching of Trp403 fluorescence,[3],not seen
same,maximum Tm increase (maximum ∆Tm),CaMKIIα WT hub,15 °C
same,Effect on syntide phosphorylation by CaMKIIα,recombinant CaMKIIα,no effect
same,Thr286 autophosphorylation,[1]; Ca2+-stimulated conditions,did not affect
same,Thr286 autophosphorylation,[1]; basal conditions,did not affect
same,Cell survival (LDH),cortical neurons; 1 mM applied immediately or 30 min after Glu stimulation,did not have any effect
same,Cell death (LDH),"cortical neurons; applied 1 h after Glu stimulus, concentration dependent (0.1 to 3 mM)",significantly reduced cell death
same,mean recovery compared with the Glu-only condition (live/dead ratio),"hippocampal neurons; Camk2a+/+ neurons, trend, not significant",18%
same,Cell survival after Glu,hippocampal neurons,neither tat-CN21 nor HOCPCA improved cell survival
same,Cell live/dead ratio,"hippocampal neurons; FvB hippocampal cultures, 1 mM, 1 h poststimulation, 400 μM Glu",significantly increased
same,Effect on body temperature,[2],no hypothermia
same,Affinity to native GABAB receptors,GABAB receptors; at 1 mM,no affinity; also recorded: lack affinity
same,Long-term potentiation (LTP),[4],did not inhibit
same,Forelimb asymmetry in the cylinder test,C57/B6 mice; [8],improvements
same,"Motor coordination, paw placement on grid-walking task",C57/B6 mice; [8],improvements
same,reduction in infarct volume,"C57/B6 mice; 175 mg/kg at 3, 6, and 12 h poststroke, measured 7 d poststroke, young male mice",40 to 50%
same,Transport of neuroanatomical tracer biotinylated dextran amine,"C57/B6 mice; 175 mg/kg i.p., 14 days post-stroke",reversal of the stroke-induced decrease
same,"Compound action potentials (CAPs), corpus callosum","C57/B6 mice; 175 mg/kg single treatment 3 h poststroke, 14 d poststroke",50 to 60 % of control
same,Treatment effect of single dose,"C57/B6 mice; aged female mice, 175 mg/kg",significant treatment effects
same,Treatment effect of single dose,"C57/B6 mice; young males, 90 mg/kg, 3 h poststroke",significant treatment effects
"GRKKRRQRRRKRPPKLGQIGRSKRVVIEDDR [tat-CN21, reference compound]",Cell death (LDH),cortical neurons; tat-CN21 control (10 μM),significantly reduced cell death
same,Live/dead ratio after Glu,hippocampal neurons; Camk2a+/+ neurons,significantly improved
same,Cell survival after Glu,hippocampal neurons,neither tat-CN21 nor HOCPCA improved cell survival
KRPPKLGQIGRSKRVVIEDDR [CN21],Effect on syntide phosphorylation by CaMKIIα,recombinant CaMKIIα,concentration-dependent inhibition
[3H]C1(O)C=C(C(=O)O)CC1 (stereo not drawn) [[3H]HOCPCA],Binding to brain slices from Camk2a-/- mice,[5],complete lack of binding
same,"Binding to brain tissue of Camk2a+/+, Camk2b+/+ and Camk2b-/- mice",[5],intact binding
same,Binding to CaMKIIα hub deletion mutant (Δhub),[6],complete absence
same,Binding to CaMKIIβ/γ/δ subtypes,[7],no [^3H]HOCPCA binding was observed
